Assay results taken from patent US20250230138A1, “COMPOUNDS HAVING A T-STRUCTURE FORMED BY AT LEAST FOUR CYCLES FOR USE IN THE TREATMENT OF CANCER AND OTHER INDICATIONS” (TheRas, Inc., priority 2022, published 2025).

Columns and labels:
[1] = test system: pAKT in BT474 cells; experiment: Cell-based pAKT HTRF assay in BT474 cells; conditions: Homo sapiens, BT-474; BT474 cell line; read-out: pAKT (IC50)
Procedure, shortened: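 The HTRF signal (excitation 320 nm, emission 615 nm) came from d2/Eu Cryptate antibodies added to lysates and incubated 4–24 h at room temperature. Those lysates were taken from cells treated for 4 hr with compound, top concentration 3 μM, in 0.25% DMSO.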

[2] = Serum insulin levels in fed mice; format: in vivo; conditions: fed male C57/BL6J mice, 240 minutes after one oral dose 50 mg/kg
Protocol: In the second study, serum insulin levels were measured in fed mice following administration of compounds to determine if Compound 58 induces hyperinsulinemia like the PI3Kα kinase domain inhibitor alpelisib (FIG. 3D). Approximately 5 μL of whole blood was collected via tail snip from male C57/BL6J mice and used to measure fed blood glucose levels using a glucometer. Mice were randomized into three groups (8 mice per group) based on blood glucose levels and then administered one oral dose of vehicle, 50 mg/kg alpelisib, or 300 mg/kg Compound 58. 240 minutes later, whole blood was collected and processed to serum and insulin levels were measured using an ELISA.

[3] = test system: BT474 cell line; experiment: Cell viability in BT474 cell line; format: cell-based; conditions: Homo sapiens, BT-474
Excerpt: Table 8 compares the pAKT IC50 and cell viability for Compound 58, a PI3Kα breaker, and the PI3Kα inhibitor alpelisib in the breast cancer estrogen receptor positive (ER+) BT474 cell line, which harbors a HER2 amplification and PIK3CA linker domain K111N mutation. […] Importantly, the potency on pAKT translates well into a loss in cellular viability.

[4] = Oral glucose tolerance test in fasted mice; format: in vivo; conditions: fasted male C57/BL6J mice, one oral dose 50 mg/kg, 2 g/kg glucose 1 h later, 15-120 minutes
Protocol: Two in vivo studies were performed to determine whether Compound 58 administration induces hyperglycemia and hyperinsulinemia in mice like the PI3Kα kinase domain inhibitor alpelisib (FIGS. 3C and 3D). In the first study, an oral glucose tolerance test was performed in fasted mice following the administration of compounds to determine if Compound 58 induces hyperglycemia (FIG. 3C). Male C57/BL6J mice were fasted overnight for 16 hours and approximately 5 μL of whole blood was collected via tail snip to measure fasted blood glucose levels using a glucometer. Mice were randomized into three groups (8 mice per group) based on blood glucose levels and then administered one oral dose of vehicle, 50 mg/kg alpelisib, or 300 mg/kg Compound 58. One hour later, blood was collected for a glucose measurement and then a single oral dose of a 2 g/kg glucose solution was administered. Blood glucose measurements were performed at 15, 30, 60, 90, and 120 minutes after the administration of the glucose solution.

[5] = Phase III clinical trial; cited from earlier work
[6] = Insulin levels in fed male mice (FIG. 3D); format: in vivo; conditions: single oral dose 50 mg/kg, 240 minutes after administration
Protocol: (§1) (One-way ANOVA with Dunnett's test vs. vehicle; *=p<0.01; **=p<0.0001). From left to right along x-axis in FIG. 3B: vehicle, 30 mg/kg BBO, 100 mg/kg BBO, 300 mg/kg BBO, 50 mg/kg alpelisib. […] (One-way ANOVA with Tukey's multiple comparisons test vs all other groups: *p<0.0001) (IV=intravenous administration; PO=per os or oral administration; ng/mL=nanograms per milliliters; mg/kg=milligrams per kilogram; mg/dL=milligrams per deciliter; min=minutes; CDX=cell line derived xenograft; QD=quaque die or once daily, PK=pharmacokinetics)

[7] = test system: pAKT (Ser473) in BT474 CDX tumors; experiment: Pharmacodynamic activity (tumor pAKT) in BT474 cell line-derived xenograft model; format: in vivo, mice; conditions: NOD/SCID mice, 4 hours after one oral dose of 50 mg/kg
Protocol: An in vivo study was conducted to evaluate the pharmacodynamic activity of Compound 58 in the breast cancer estrogen receptor positive (ER+) BT474 cell line-derived xenograft (CDX) model, which harbors a HER2 amplification and PIK3CA linker domain K111N mutation (FIG. 3B). NOD/SCID mice were implanted subcutaneously with BT474 human tumor cells and were injected subcutaneously with estradiol benzoate twice a week to support tumor growth. When tumors reached a mean size of 286 mm^3, mice were randomized into treatment groups (4 mice per group) and administered one oral dose of vehicle, 30 mg/kg Compound 58, 100 mg/kg Compound 58, 300 mg/kg Compound 58, or 50 mg/kg alpelisib. Alpelisib is a PI3Kα kinase domain inhibitor and was included as a positive control. Whole blood and tumors were collected 4 hours post the dose. Blood was processed to plasma and compound concentrations were determined with LC-MS/MS. Tumors were processed into lysates and pAKT levels were measured using the Meso Scale Diagnostics (MSD) multi-spot pAKT (Ser473)/total AKT assay whole cell lysate kit.

[8] = Blood glucose after an oral glucose tolerance test in fasted male mice (FIG. 3C); format: in vivo; conditions: single dose
Protocol: as §1

Cc1nc(NC(=O)N2CCC[C@H]2C(N)=O)sc1-c1ccnc(C(C)(C)C(F)(F)F)c1 [alpelisib, reference compound]
IC50 [1]: 169 nM | Serum insulin levels [2]: significantly elevated | IC50 [3]: 744 nM | Blood glucose levels after glucose dose (oral glucose tolerance test) [4]: significantly elevated | patients in whom hyperglycemia was observed [5]: 65% | insulin levels (hyperinsulinemia) [6]: Hyperinsulinemia is observed | pAKT inhibited [7]: 97% | blood glucose levels (hyperglycemia) [8]: Hyperglycemia is observed
